Results: US11149005B2, “Organic amine ester derivative drug of 2-(α-hydroxypentyl)benzoic acid” (YAOPHARMA CO., LTD., priority 2018, dated 2021)
≈ marks a conversion by molar mass, not a printed value. Read-outs that look alike come from different tables or passages of the source.

Key:
[1] = Solubility in pH 1.0, 4.5, 6.8 buffer solutions and pure water (supersaturated solution, 37° C., HPLC); assay type: physicochemical; conditions: for solubility: ultrapure water, thermodynamic from solid, 37° C. water bath overnight, read-out: apparent solubility in pure water
Protocol: 1. The experiment process A pH 1.0 HCl solution, a pH 4.5 acetate buffer solution, a pH 6.8 phosphate buffer solution and 5 mL of ultrapure water are added into graduated test tubes having stoppers. Small amounts of the test samples (butyphthalide (NBP), DB-1 hydrochloride or DB-2 hydrochloride) are weighed and added in batches. After each batch of the adding, intense shaking is performed for 30 seconds (ultrasound is prohibited), the dissolving is observed at any time, and when the test samples are add so that turbid insoluble particles or liquid drops can be seen, finally proper amounts of the test samples are added. The system is placed into a 37° C. water bath and vibrated overnight, to form a supersaturated solution. The supersaturated solution is centrifuged or filtered (the adsorption should be noticed), and 100 μL is fed into HPLC to measure the concentrations of the tested medicines.

[2] = Hygroscopicity: moisture absorption/weight gaining percentage at 25° C., relative humidity 75%; assay type: physicochemical
Protocol: 1. The Experiment Process
Three samples of each of the sodium salt of 2-(α-hydroxypentyl)benzoic acid, DB-1 and DB-2 are precisely weighed with approximately 0.2 g for each sample, and placed into weighing bottles, and the total masses of each of the samples and its weighing bottle are weighed and recorded. Then the weighing bottles are placed in a closed environment at 25° C. and at a constant humidity with the relative humidity of 75%, their masses are weighed at 6 h, 12 h, 24 h, 48 h, 96 h and 120 h, and the moisture absorption/weight gaining percentages are calculated. The moisture absorption/weight gaining percentages are calculated by using the formula as follows: moisture absorption/weight gaining percentage (%)=(sample mass after dilution—sample mass before dilution)/sample mass before dilution*100%.

[3] = Pharmacokinetics in mice: blood concentration versus time (LC-MS/MS); assay type: in vivo, Kunming mice; conditions: 10 mg/kg butyphthalide or equal moles; for concentration at 5 min / concentration at 1 h: male, Kunming, mouse, plasma
Protocol: (§1) 1. Animal Grouping and Dosage Regimen
(§2) 90 Kunming mice (male; 20±2 g) are randomly grouped into three groups, with 30 mice in each of the groups. The first group is the butyphthalide group, is divided into 6 subgroups (5 mice in each of the subgroups), and is administered with butyphthalide by 10 mg/kg. The secondary group is the DB-1 group, is divided into 6 subgroups (5 mice in each of the subgroups), and is administered with DB-1 of the equal moles to the butyphthalide. The third group is the DB-2 group, is divided into 6 subgroups (5 mice in each of the subgroups), and is administered with DB-2 of the equal moles to the butyphthalide. Before the experiment the mice are fasted and are free to drink water. At 5 min, 15 min, 30 min, 1 h, 2 h and 4 h, all of the groups are taken blood at the orbit and then executed, and the hearts, livers, spleens, lungs, kidneys and brains of the mice are immediately separated, washed by using normal saline, dried by using filter paper, weighed, added normal saline of a certain multiple, homogenized, placed into a −40° C. refrigerator, and refrigerated for use. The whole blood is centrifuged at 4500 r/min for 5 min, and the plasma is sucked and placed into a −40° C. refrigerator for use. The stored tissue homogenates are thawed, and 0.1 mL of each of the tissue homogenates is placed into a 0.5 mL EP tube, and added 0.2 mL of acetonitrile protein for precipitation. The precipitate is treated by vortex shocking for 5 minutes, and centrifuged at 10000 rpm for 10 min, and […] of the supernatant is fed into an LC-MS/MS system, for measuring the concentrations of the tested medicines.

[4] = In-vivo tissue distribution in mice (heart, liver, spleen, lung, kidney, brain); design: species or system Kunming mice; conditions: for contents in the brain compared with the sodium salt of 2-(α-hydroxypentyl)benzoic acid (NBP): all detection time points
Protocol: as §1, §2

[5] = Assessment on the brain targeting ability (Re, Ce, DTI relative to NBP, DAS3.2.5); assay type: in vivo, Kunming mice; conditions: mice
Protocol: as §2
The pharmacokinetic parameters are calculated by using the DAS3.2.5 software. Regarding the quantitative assessment on the brain targeting ability of the sodium salt of 2-(α-hydroxypentyl)benzoic acid (NBP), DB-1 hydrochloride and DB-2 hydrochloride, the following parameters are employed: relative uptake ratio (Rebrain), peak concentration ratio (Cebrain) and drug targeting index (DTIbrain), the calculating formulas of which are respectively: Re(brain, DB-1)=(AUCbrain)DB-1/(AUCbrain)NBP CeDB-1=(Cmax,brain)DB-1/(Cmax,brain)NBP DTIDB-1=(AUCbrain/AUCplasma)DB-1/(AUCbrain/AUCplasma)NBP Re(brain, DB-2)=(AUCbrain)DB-2/(AUCbrain)NBP CeDB-2=(Cmax,brain)DB-2/(Cmax,brain)NBP DTIDB-2=(AUCbrain/AUCplasma)DB-2/(AUCbrain/AUCplasma)NBP
The calculation results of the parameters can be seen in Table 2. Regarding DB-1, the brain relative uptake ratio Re is 3.64, the peak concentration ratio Ce is 2.93, and the drug targeting index DTI is 12.45. Regarding DB-2, the brain relative uptake ratio Re is 4.27, the peak concentration ratio Ce is 3.19, and the drug targeting index DTI is 18.08.

[6] = pH 1.0 HCl, pH 4.5 acetate, pH 6.8 phosphate buffer, pure water
[7] = 5 min after intravenous administration
[8] = 1 h after intravenous administration

| influence of pH on solubility [1, 6] | solubility class in words ([1]; pure water) | solubility ([1]; pure water) | moisture absorption/weight gaining percentage ([2]; 6 h) | moisture absorption/weight gaining percentage ([2]; 12 h) | moisture absorption/weight gaining percentage ([2]; 24 h) | moisture absorption/weight gaining percentage ([2]; 48 h) | moisture absorption/weight gaining percentage ([2]; 96 h) | moisture absorption/weight gaining percentage ([2]; 120 h) | concentration at 5 min [3, 7] | concentration at 1 h [3, 8] | contents in the brain compared with the sodium salt of 2-(α-hydroxypentyl)benzoic acid (NBP) [4] | brain relative uptake ratio Re (AUCbrain of compound / AUCbrain of NBP) [5] | drug targeting index DTI ((AUCbrain/AUCplasma) of compound / (AUCbrain/AUCplasma) of NBP) [5] | peak concentration ratio Ce (Cmax,brain of compound / Cmax,brain of NBP) [5] | SMILES | permeation of the blood-brain barrier [4] | further results |
| --- | --- | --- | --- | --- | --- | --- | --- | --- | --- | --- | --- | --- | --- | --- | --- | --- | --- |
| – | – | – | – | – | – | – | – | – | – | – | – | – | – | – | CCCCC1OC(=O)c2ccccc21 (racemic) [Butyphthalide (NBP), dl-3-n-butylphthalide, reference compound] | – | apparent solubility in pure water [1]: 0.0734 ± 0.0123 mg/mL; influence of pH on solubility [1]: not obvious; solubility class in words [1]: insoluble medicine |
| highest in the pH 1.0 HCl solution | soluble medicines | 11.7 ± 1.89 mg/mL (≈ 32.2 mM) | 0.38% | 0.54% | 0.65% | 0.71% | 0.72% | 0.76% | 6.29 ± 1.2 µM | 1.45 ± 0.657 µM | significant greater | 4.27 | 18.08 | 3.19 | CCCCC(OC(C)=O)c1ccccc1C(=O)OCCN1CCCCC1 (stereo not shown) [DB-2] | can also permeate the blood-brain barrier and enter the brain | moisture absorption/weight gaining percentage ([2]; 120 h, listed as DB-2 hydrochloride): 0.76±0.06%; accumulated concentration in the brain compared with DB-1 hydrochloride [4]: greater |
| highest in the pH 1.0 HCl solution | soluble medicines | 20 ± 2.98 mg/mL (≈ 62.3 mM) | 0.42% | 0.65% | 0.88% | 0.93% | 0.97% | 1.03% | 8.68 ± 1.48 µM | 2.98 ± 0.534 µM | significant greater | 3.64 | 12.45 | 2.93 | CCCCC(OC(C)=O)c1ccccc1C(=O)OCCN(C)C (stereo not shown) [DB-1] | can also permeate the blood-brain barrier and enter the brain | moisture absorption/weight gaining percentage ([2]; 120 h, listed as DB-1 hydrochloride): 1.03±0.07% |

| SMILES | influence of pH on solubility [1, 6] | solubility class in words ([1]; pure water) | solubility ([1]; pure water) | moisture absorption/weight gaining percentage ([2]; 6 h) | moisture absorption/weight gaining percentage ([2]; 12 h) | moisture absorption/weight gaining percentage ([2]; 24 h) | moisture absorption/weight gaining percentage ([2]; 48 h) | moisture absorption/weight gaining percentage ([2]; 96 h) | moisture absorption/weight gaining percentage ([2]; 120 h) | concentration at 5 min [3, 7] | concentration at 1 h [3, 8] | contents in the brain compared with the sodium salt of 2-(α-hydroxypentyl)benzoic acid (NBP) [4] | brain relative uptake ratio Re (AUCbrain of compound / AUCbrain of NBP) [5] | drug targeting index DTI ((AUCbrain/AUCplasma) of compound / (AUCbrain/AUCplasma) of NBP) [5] | peak concentration ratio Ce (Cmax,brain of compound / Cmax,brain of NBP) [5] | permeation of the blood-brain barrier [4] | further results |
| --- | --- | --- | --- | --- | --- | --- | --- | --- | --- | --- | --- | --- | --- | --- | --- | --- | --- |
| CCCCC(O)c1ccccc1C(=O)[O-].[Na+] (stereo not drawn) [sodium salt of 2-(α-hydroxypentyl)benzoic acid, reference compound] | – | – | – | – | – | – | – | – | 2.49±0.25% | – | – | – | – | – | – | can permeate the blood-brain barrier and enter the brain | blood concentration [3, 7]: 12.243 ± 1.847 µM; blood concentration [3, 8]: 0.547 ± 0.289 µM; contents in the heart, the lung and the brain ([4]; 4 h after administration): too low to be detected |
